The source of these data is patent US20110130380A1, “Heteroaryl Kinase Inhibitors” (priority 2009, published 2011).

The structures appear in SMILES notation. Bounds are passed on as bounds.

One assay deals with Cdk9/cyclinT1 (Homo sapiens, UniProt P50750). The experiment in a line: Cdk9/cyclinT1 IMAP Protocol (fluorescence polarization kinase assay). Conditions: Cdk9_cyclinT1_IC50, Table V; generated using one of the two Cdk9/cyclinT1 assays (IMAP or Alpha Screen), not stated which; ATP 6 uM.
Chain of Cdk9/cyclinT1 (P50750 whole entry): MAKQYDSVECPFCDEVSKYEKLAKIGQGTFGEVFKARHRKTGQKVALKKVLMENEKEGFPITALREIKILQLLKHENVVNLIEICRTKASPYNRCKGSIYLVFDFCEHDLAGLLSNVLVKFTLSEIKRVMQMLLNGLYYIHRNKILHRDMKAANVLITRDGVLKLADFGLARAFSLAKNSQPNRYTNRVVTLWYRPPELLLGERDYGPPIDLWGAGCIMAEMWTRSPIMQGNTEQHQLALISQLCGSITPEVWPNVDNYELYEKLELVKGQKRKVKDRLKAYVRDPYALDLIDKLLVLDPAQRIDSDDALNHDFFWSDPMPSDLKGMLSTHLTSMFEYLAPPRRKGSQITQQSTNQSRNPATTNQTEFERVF
Chain of Cdk9/cyclinT1 (O60563 whole entry partner): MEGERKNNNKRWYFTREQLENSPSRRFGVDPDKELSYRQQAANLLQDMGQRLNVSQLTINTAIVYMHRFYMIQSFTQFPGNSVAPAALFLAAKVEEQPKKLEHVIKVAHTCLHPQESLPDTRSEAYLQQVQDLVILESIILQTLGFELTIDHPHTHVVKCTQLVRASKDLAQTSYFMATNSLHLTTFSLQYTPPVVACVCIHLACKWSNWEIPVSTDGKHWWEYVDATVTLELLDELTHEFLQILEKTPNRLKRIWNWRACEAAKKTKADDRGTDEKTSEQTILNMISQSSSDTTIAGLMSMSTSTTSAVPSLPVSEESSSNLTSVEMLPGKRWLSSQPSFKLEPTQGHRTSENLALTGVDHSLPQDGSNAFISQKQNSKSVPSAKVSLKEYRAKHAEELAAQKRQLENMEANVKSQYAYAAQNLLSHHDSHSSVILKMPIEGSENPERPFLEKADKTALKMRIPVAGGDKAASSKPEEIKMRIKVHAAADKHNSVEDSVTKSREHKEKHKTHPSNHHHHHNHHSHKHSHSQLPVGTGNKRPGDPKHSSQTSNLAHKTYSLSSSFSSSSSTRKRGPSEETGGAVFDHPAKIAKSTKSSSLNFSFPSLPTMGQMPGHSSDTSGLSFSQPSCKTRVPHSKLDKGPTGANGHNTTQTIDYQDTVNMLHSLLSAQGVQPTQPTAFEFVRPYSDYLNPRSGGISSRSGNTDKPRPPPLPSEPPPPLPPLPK
Turning to `O=C(Nc1cc(-c2cccc(NCC3CCCCO3)n2)c(Cl)cn1)[C@@H]1CCCNC1` (stereo partly drawn) [Example 34, (R)-Piperidine-3-carboxylic acid {5′-chloro-6-[(tetrahydro-pyran-2-ylmethyl)-amino]-[2,4′]bipyridinyl-2′-yl}-amide], the IC50 worked out at 10 nM.

As for `C[C@@H]1CC[C@@H](C(=O)Nc2cc(-c3cccc(NCC4CCOCC4)n3)c(Cl)cn2)CN1` (single isomer, unassigned) [Example 146], the IC50 was 1 nM.

`CN(CC1CCOCC1)c1cccc(-c2cc(NC(=O)[C@@H]3CCCNC3)ncc2Cl)n1` [Example 35, (R)-Piperidine-3-carboxylic acid {5′-chloro-6-[methyl-(tetrahydro-pyran-4-ylmethyl)-amino]-[2,4′]bipyridinyl-2′-yl}-amide] displayed an IC50 of under 8 nM.

For `CO[C@H]1CNC[C@@H]1C(=O)Nc1cc(-c2nc(NCC3CCOCC3)ccc2Cl)c(Cl)cn1` [Example 150, (3S,4R)-4-Methoxy-pyrrolidine-3-carboxylic acid {3,5′-dichloro-6-[(tetrahydro-pyran-4-ylmethyl)-amino]-[2,4′]bipyridinyl-2′-yl}-amide], the IC50 was under 8 nM.

Turning to `C[C@H](Nc1cccc(-c2cc(NC(=O)[C@@H]3CCCNC3)ncc2Cl)n1)C1CCCCC1` [Example 77, (R)-Piperidine-3-carboxylic acid [5′-chloro-6-((S)-1-cyclohexyl-ethylamino)-[2,4′]bipyridinyl-2′-yl]-amide], the midpoint of inhibition, the IC50, lay at 8 nM.

On to `O=C(Nc1cc(-c2cccc(NCc3cccc(F)c3)n2)c(Cl)cn1)[C@H]1CCCNC1` [Example 4, (S)-Piperidine-3-carboxylic acid [5′-chloro-6-(3-fluoro-benzylamino)-[2,4′]bipyridinyl-2′-yl]-amide], for which the midpoint of inhibition, the IC50, lay at 17 nM.

Regarding `O=C(Nc1cc(-c2ccc(Cl)c(NCC3CCOCC3)n2)c(Cl)cn1)[C@@H]1CCCNC1` [Example 74, (R)-Piperidine-3-carboxylic acid {5,5′-dichloro-6-[(tetrahydro-pyran-4-ylmethyl)-amino]-[2,4′]bipyridinyl-2′-yl}-amide], the IC50 was under 8 nM.

As to `O=C(Nc1cc(-c2cccc(NC[C@H]3CCCOC3)n2)c(Cl)cn1)[C@@H]1CCCNC1` (single isomer, unassigned) [Example 78], the IC50 is under 8 nM.

Regarding `O=C(Nc1cc(-c2cccc(NCc3cncc(F)c3)n2)c(Cl)cn1)[C@@H]1CCCNC1` [Example 41, (R)-Piperidine-3-carboxylic acid {5′-chloro-6-[(5-fluoro-pyridin-3-ylmethyl)-amino]-[2,4′]bipyridinyl-2′-yl}-amide], the IC50 was under 8 nM.

`O=C(Nc1cc(-c2cccc(NCc3cccnc3)n2)c(Cl)cn1)[C@@H]1CCCNC1` [Example 40, (R)-Piperidine-3-carboxylic acid {5′-chloro-6-[(pyridin-3-ylmethyl)-amino]-[2,4′]bipyridinyl-2′-yl}-amide] gave an IC50 of under 8 nM.

In the case of `O=C(Nc1cc(-c2nc(NCC3CCOCC3)ccc2Cl)c(Cl)cn1)C1CNCCOC1` (single isomer, unassigned) [Example 213], inhibition was half-maximal at 2 nM (IC50).

Compound `CO[C@@H]1CNC[C@H](C(=O)Nc2cc(-c3cccc(NCC4CCOCC4)n3)c(Cl)cn2)C1` (racemic) [Example 184, (3R,5S)-/(3S,5R)-5-Methoxy-piperidine-3-carboxylic acid {5′-chloro-6-[(tetrahydro-pyran-4-ylmethyl)-amino]-[2,4′]bipyridinyl-2′-yl}-amide] yielded an IC50 of 11 nM.

Compound `C[C@H]1CC[C@H](C(=O)Nc2cc(-c3cccc(NC[C@H]4CCOC(C)(C)C4)n3)c(Cl)cn2)CN1` (single isomer, unassigned) [Example 245] returned an IC50 of 6 nM.

Compound `C[C@H]1CC[C@H](C(=O)Nc2cc(-c3cccc(NCC4CCOCC4)n3)c(Cl)cn2)CN1` (single isomer, unassigned) [Example 147] yielded an IC50 of 5 nM.

Consider `CN1CCCCC(C(=O)Nc2cc(-c3nc(NCC4CCOCC4)ccc3Cl)c(Cl)cn2)C1` (stereo not shown) [Example 200, 1-Methyl-azepane-3-carboxylic acid {3,5′-dichloro-6-[(tetrahydro-pyran-4-ylmethyl)-amino]-[2,4′]bipyridinyl-2′-yl}-amide], for which 31 nM corresponded to half-maximal inhibition (IC50).

For the compound `CC(=O)NCCNc1cccc(-c2cc(NC(=O)[C@@H]3CCCNC3)ncc2Cl)n1` [Example 37, (R)-Piperidine-3-carboxylic acid [6-(2-acetylamino-ethylamino)-5′-chloro-[2,4′]bipyridinyl-2′-yl]-amide], half-maximal inhibition (IC50) was put at 50 nM.

Turning to `CC[C@@H]1CC[C@@H](C(=O)Nc2cc(-c3cccc(NCC4CCOCC4)n3)c(Cl)cn2)CN1` (racemic) [Example 229, (3R,6R)-/(3S,6S)-6-Ethyl-piperidine-3-carboxylic acid {5′-chloro-6-[(tetrahydro-pyran-4-ylmethyl)-amino]-[2,4′]bipyridinyl-2′-yl}-amide], it took 1 nM to reach half-maximal inhibition (IC50).

As to `CC1(C)COCC(CNc2nc(-c3cc(NC(=O)[C@@H]4CCCNC4)ncc3Cl)ccc2F)O1` (stereo partly drawn) [Example 254, (R)-Piperidine-3-carboxylic acid {5′-chloro-6-[(6,6-dimethyl-[1,4]dioxan-2-ylmethyl)-amino]-5-fluoro-[2,4′]bipyridinyl-2′-yl}-amide], it took 1 nM to reach half-maximal inhibition (IC50).

Regarding `C[C@H]1CNC[C@@H](C(=O)Nc2cc(-c3cccc(NCC4CCOCC4)n3)c(Cl)cn2)C1` (single isomer, unassigned) [Example 129], the IC50 came to 13 nM.

`O=C(COc1ccc(Cl)cn1)Nc1cc(-c2cccc(NCC3CCOCC3)n2)c(Cl)cn1` [Example 103, 2-(5-Chloro-pyridin-2-yloxy)-N-{5′-chloro-6-[(tetrahydro-pyran-4-ylmethyl)-amino]-[2,4′]bipyridinyl-2′-yl}-acetamide] registered an IC50 of 27 nM.

`O=C(Nc1cc(-c2cccc(NCC3CCOCC3)n2)c(Cl)cn1)[C@@H]1CNC[C@H](F)C1` [Example 176, (3S,5R)-5-Fluoro-piperidine-3-carboxylic acid {5′-chloro-6-[(tetrahydro-pyran-4-ylmethyl)-amino]-[2,4′]bipyridinyl-2′-yl}-amide] gave an IC50 of 23 nM.

`O=C(Nc1cc(-c2cccc(NCC3CCCCC3)n2)c(Cl)cn1)[C@@H]1CCCNC1` [Example 17, (R)-Piperidine-3-carboxylic acid [5′-chloro-6-(cyclohexylmethyl-amino)-[2,4′]bipyridinyl-2′-yl]-amide] registered an IC50 of under 8 nM.

The compound `CC1(C)COC[C@H](CNc2nc(-c3cc(NC(=O)[C@@H]4CCCNC4)ncc3Cl)ccc2F)O1` (single isomer, unassigned) [Example 262] yielded an IC50 of 3 nM.

On to `CC1(C)C[C@H](CNc2cccc(-c3cc(NC(=O)[C@@H]4CCNC4)ncc3Cl)n2)CCO1` [Example 259, (R)-Pyrrolidine-3-carboxylic acid {5′-chloro-6-[((R)-2,2-dimethyl-tetrahydro-pyran-4-ylmethyl)-amino]-[2,4′]bipyridinyl-2′-yl}-amide], for which the IC50 is 1 nM.

`O=C(Nc1cc(-c2cccc(NCC3CCOCC3)n2)c(Cl)cn1)[C@H]1CNC[C@H](C(F)(F)F)C1` (single isomer, unassigned) [Example 162] returned an IC50 of 10 nM.

Take `CC(C)(C)OC(=O)N1CCC[C@H](C(=O)Nc2cc(-c3cccc(NCc4cccc(F)c4)n3)c(Cl)cn2)C1` [Example 5, (S)-3-[5′-Chloro-6-(3-fluoro-benzylamino)-[2,4′]bipyridinyl-2′-ylcarbamoyl]-piperidine-1-carboxylic acid tert-butyl ester]: the IC50 worked out at 62 nM.

`CO[C@H]1CNC[C@@H]1C(=O)Nc1cc(-c2cccc(NCC3C[C@@H](C)O[C@@H](C)C3)n2)c(Cl)cn1` (stereo partly drawn) [Example 171, (3S,4R)-4-Methoxy-pyrrolidine-3-carboxylic acid {5′-chloro-6-[((2R,6S)-2,6-dimethyl-tetrahydro-pyran-4-ylmethyl)-amino]-[2,4′]bipyridinyl-2′-yl}-amide] returned an IC50 of 1 nM.

Turning to `COC[C@@H]1CC[C@@H](C(=O)Nc2cc(-c3cccc(NCC4CCOCC4)n3)c(Cl)cn2)CN1` (racemic) [Example 221, (3R,6S)-/(3S,6R)-6-Methoxymethyl-piperidine-3-carboxylic acid {5′-chloro-6-[(tetrahydro-pyran-4-ylmethyl)-amino]-[2,4′]bipyridinyl-2′-yl}-amide], the IC50 was 3 nM.

In turn, `CCN1CCC[C@@H](C(=O)Nc2cc(-c3cccc(NCC4CCOCC4)n3)c(Cl)cn2)C1` (single isomer, unassigned) [Example 56] displayed an IC50 of 81 nM.

For the compound `O=C(Nc1cc(-c2ccc(C(F)(F)F)c(NCC3CCOCC3)n2)c(Cl)cn1)[C@@H]1CCCNC1` [Example 217, (R)-Piperidine-3-carboxylic acid {5′-chloro-6-[(tetrahydro-pyran-4-ylmethyl)-amino]-5-trifluoromethyl-[2,4′]bipyridinyl-2′-yl}-amide], the IC50 came to 4 nM.

In turn, `O=C(Nc1cc(-c2cccc(NCC3CCOCC3)n2)ccn1)[C@@H]1CCCNC1` [Example 15, (R)-Piperidine-3-carboxylic acid {6-[(tetrahydro-pyran-4-ylmethyl)-amino]-[2,4′]bipyridinyl-2′-yl}-amide] gave an IC50 of under 8 nM.

The compound `CC1(C)CO[C@H](CNc2cccc(-c3cc(NC(=O)[C@@H]4CCCNC4)ncc3Cl)n2)CO1` (single isomer, unassigned) [Example 232] yielded an IC50 of 1 nM.

Consider `CC1(C)CC(CNc2ccc(Cl)c(-c3cc(NC(=O)[C@H]4CNCCO4)ncc3Cl)n2)CCO1` (stereo partly drawn) [Example 133, (R)-Morpholine-2-carboxylic acid {3,5′-dichloro-6-[(2,2-dimethyl-tetrahydro-pyran-4-ylmethyl)-amino]-[2,4′]bipyridinyl-2′-yl}-amide], for which the IC50 is under 8 nM.

The assay is the same for the next values; noted with them: Cdk9_cyclinT1_IC50, generated using one of the two Cdk9/cyclinT1 assays (IMAP or Alpha Screen), not specified per value; ATP 6 uM.
On to `CC1(C)CC(CNc2cnc(Cl)c(-c3cc(NC(=O)[C@H]4CNCCO4)ncc3Cl)c2)CCO1` (stereo partly drawn) [Example 315, (R)-Morpholine-2-carboxylic acid {2,5′-dichloro-5-[(2,2-dimethyl-tetrahydro-pyran-4-ylmethyl)-amino]-[3,4′]bipyridinyl-2′-yl}-amide], for which half-maximal inhibition (IC50) was put at 4 nM.
